Reference: patent publication US8835484B2, “Naphthocyanines for use as contrast agents” (Alamedics GmbH & Co. KG, priority 2010, dated 2014)
Blank lines part the entries; values can stand above or below the compound they belong to.

Legend:
[1] = Fluorescence quantum yield; format: physicochemical; details: CHCl3; Reference: S-13 with Φ=1.00
Source text: IR spectra: Perkin Elmer Spectrum BX II, using a diamond anvil cell; UV/Vis spectra: Varian Cary 5000 and Bruins Omega 20; fluorescence spectra: Varian Eclispe; NMR spectroscopy: Varian Vnmrs 600 (600 MHz, 400 MHz, 200 MHz); mass spectrometry: Thermo Finnigan LQT FT.

[2] = tested on: lens capsule; experiment: Dye tests on porcine eyes (lens capsule staining); design: key: +++: visually assessed very strong coloration; ++: good coloration; +: satisfactory coloration; −: weak or absent coloration; details: incubated, rinsed after one minute
Protocol: For the dye test, in each case 5 mg dye was dissolved in 500 μL ethanol and diluted to 2 mL with BSS Plus solution as the stock solution, and then correspondingly further diluted. As an alternative, one can prepare stock solutions of the dye by dissolving, for example, 5 mg dye in 1 mL distilled water, adding 7 mL BSS solution and then combining with 1 mL NaCl solution having an osmolality of 620 (approximately 2%) in order to restore the original osmolality of the BSS solution (308). This stock solution can be correspondingly further diluted with BSS solution as required. Enucleated porcine eyes were used having a post mortem time period of a few hours. To dye the lens capsule, the cornea was first removed. Thereafter, the iris was resected and the capsular support was severed. The lens with intact lens capsule was removed and placed in a bowl filled with BSS. The lenses were thereafter incubated with the dyes according to the invention at various concentrations and then rinsed after one minute. The dye pattern was photographically documented, whereby the coloration was assessed without additional illumination, and fluorescence was assessed with illumination (Xenon lamp, halogen lamp with typical endoillumination source and fiber optics). The lens capsule is a very good model for dyeing due to the fact that it is a basal membrane, as is the ILM of the retina. Both structures are important target structures in eye surgery.

[3] = Solid cyanine dye stability comparison; format: physicochemical; details: storage
Source text: Decomposition of the solid dye results in a red coloration of the solid and the solution. Carboxylic acid esters, especially methyl ester, are particularly sensitive in addition to the bromides.

Compound: CC1(C)C(=CC=CC2=[N+](CCCCCCCCCCC(=O)O)c3ccc4ccccc4c3C2(C)C)N(CCCCCCCCCCC(=O)O)c2ccc3ccccc3c21.[Br-] [Dye 3f, 3,3′-Di-(10-carboxydecyl)-1,1,1′,1′-tetramethyl-1H-dibenzo[e]indocarbocyanine bromide]
Fluorescence quantum yield [1]: 0.33

Fluorescence quantum yield [1]: 0.35
Compound: CC1(C)C(/C=C/C=C2\N(CCC(=O)O)c3ccc4ccccc4c3C2(C)C)=[N+](CCC(=O)O)c2ccc3ccccc3c21.[Br-] [Dye 3a, 3,3′-Di-(2-carboxyethyl)-1,1,1′,1′-tetramethyl-1H-dibenzo[e]indocarbocyanine bromide]
coloration of lens capsule ([2]; dye concentration 0.0025%): −
coloration of lens capsule ([2]; dye concentration 0.025%): +
coloration of lens capsule ([2]; dye concentration 0.25%): ++
coloration of lens capsule ([2]; dye concentration 0.5%): ++

Compound: CCOC(=O)CCCCN1C(=CC=CC2=[N+](CCCCC(=O)OCC)c3ccc4ccccc4c3C2(C)C)C(C)(C)c2c1ccc1ccccc21.[Br-] [Dye 3n, 3,3′-Di-(4-ethoxycarbonylbutyl)-1,1,1′,1′-tetramethyl-1H-dibenzo[e]indocarbocyanine bromide]
coloration of lens capsule ([2]; dye concentration 0.0025%): −
coloration of lens capsule ([2]; dye concentration 0.025%): −
coloration of lens capsule ([2]; dye concentration 0.25%): +
coloration of lens capsule ([2]; dye concentration 0.5%): ++
Fluorescence quantum yield [1]: 0.43

Compound: CC1(C)C(=CC=CC2=[N+](CCCCC(=O)O)c3ccc4ccccc4c3C2(C)C)N(CCCCC(=O)O)c2ccc3ccccc3c21.[Br-] [Dye 3b, 3,3′-Di-(4-carboxybutyl)-1,1,1′,1′-tetramethyl-1H-dibenzo[e]indocarbocyanine bromide]
Fluorescence quantum yield [1]: 0.49

Compound: CC1(C)C(=CC=CC2=[N+](CCCCCCCCCC(=O)O)c3ccc4ccccc4c3C2(C)C)N(CCCCCCCCCC(=O)O)c2ccc3ccccc3c21.[Br-] [Dye 3e, 3,3′-Di-(9-carboxynonyl)-1,1,1′,1′-tetramethyl-1H-dibenzo[e]indocarbocyanine bromide]
coloration of lens capsule ([2]; dye concentration 0.0025%): −
coloration of lens capsule ([2]; dye concentration 0.025%): −
coloration of lens capsule ([2]; dye concentration 0.25%): ++
coloration of lens capsule ([2]; dye concentration 0.5%): ++
Fluorescence quantum yield [1]: 0.59

Fluorescence quantum yield [1]: 0.61
Compound: CCOC(=O)CCCN1C(=CC=CC2=[N+](CCCC(=O)OCC)c3ccc4ccccc4c3C2(C)C)C(C)(C)c2c1ccc1ccccc21.[Br-] [Dye 3m, 3,3′-Di-(3-ethoxycarbonylpropyl)-1,1,1′,1′-tetramethyl-1H-dibenzo[e]indocarbocyanine bromide]
coloration of lens capsule ([2]; dye concentration 0.0025%): −
coloration of lens capsule ([2]; dye concentration 0.025%): −
coloration of lens capsule ([2]; dye concentration 0.25%): ++
coloration of lens capsule ([2]; dye concentration 0.5%): +++

Compound: CC1(C)C(=CC=CC2=[N+](CCCCCCCC(=O)O)c3ccc4ccccc4c3C2(C)C)N(CCCCCCCC(=O)O)c2ccc3ccccc3c21.[Br-] [Dye 3d, 3,3′-Di-(7-carboxyheptyl)-1,1,1′,1′-tetramethyl-1H-dibenzo[e]indocarbocyanine bromide]
coloration of lens capsule ([2]; dye concentration 0.0025%): −
coloration of lens capsule ([2]; dye concentration 0.025%): −
coloration of lens capsule ([2]; dye concentration 0.25%): +
coloration of lens capsule ([2]; dye concentration 0.5%): +++
Fluorescence quantum yield [1]: 0.43

Compound: 3,3′-Di-(5-bromopentyl)-1,1,1′,1′-tetramethyl-1H-dibenzo[e]indocarbocyanine bromide [Dye 3y]
Fluorescence quantum yield [1]: 0.15
Stability [3]: No decomposition after 4 months

Compound: CC1(C)C(=CC=CC2=[N+](CCCCCC(=O)O)c3ccc4ccccc4c3C2(C)C)N(CCCCCC(=O)O)c2ccc3ccccc3c21.[Br-] [Dye 3c, 3,3′-Di-(5-carboxypentyl)-1,1,1′,1′-tetramethyl-1H-dibenzo[e]indocarbocyanine bromide]
coloration of lens capsule ([2]; dye concentration 0.0025%): −
coloration of lens capsule ([2]; dye concentration 0.025%): −
coloration of lens capsule ([2]; dye concentration 0.25%): +++
coloration of lens capsule ([2]; dye concentration 0.5%): +++
Fluorescence quantum yield [1]: 0.50

Compound: CCOC(=O)CCCCCN1C(=CC=CC2=[N+](CCCCCC(=O)OCC)c3ccc4ccccc4c3C2(C)C)C(C)(C)c2c1ccc1ccccc21.[Br-] [Dye 3o, 3,3′-Di-(5-ethoxycarbonylpentyl)-1,1,1′,1′-tetramethyl-1H-dibenzo[e]indocarbocyanine bromide]
coloration of lens capsule ([2]; dye concentration 0.0025%): −
coloration of lens capsule ([2]; dye concentration 0.025%): −
coloration of lens capsule ([2]; dye concentration 0.25%): ++
coloration of lens capsule ([2]; dye concentration 0.5%): ++
Fluorescence quantum yield [1]: 0.36

Compound: CCOC(=O)CCN1C(=CC=CC2=[N+](CCC(=O)OCC)c3ccc4ccccc4c3C2(C)C)C(C)(C)c2c1ccc1ccccc21.[Br-] [Dye 3l, 3,3′-Di-(2-ethoxycarbonylethyl)-1,1,1′,1′-tetramethyl-1H-dibenzo[e]indocarbocyanine bromide]
coloration of lens capsule ([2]; dye concentration 0.0025%): −
coloration of lens capsule ([2]; dye concentration 0.025%): +
coloration of lens capsule ([2]; dye concentration 0.25%): +++
coloration of lens capsule ([2]; dye concentration 0.5%): +++
Fluorescence quantum yield [1]: 0.33

Compound: COC(=O)CCCCCCCCCCN1C(=CC=CC2=[N+](CCCCCCCCCCC(=O)OC)c3ccc4ccccc4c3C2(C)C)C(C)(C)c2c1ccc1ccccc21.[Br-] [Dye 3k, 3,3′-Di-(10-methoxycarbonyldecyl)-1,1,1′,1′-tetramethyl-1H-dibenzo[e]indocarbocyanine bromide]
coloration of lens capsule ([2]; dye concentration 0.0025%): −
coloration of lens capsule ([2]; dye concentration 0.025%): −
coloration of lens capsule ([2]; dye concentration 0.25%): +
coloration of lens capsule ([2]; dye concentration 0.5%): ++
Fluorescence quantum yield [1]: 0.36

Compound: CCOC(=O)CCCCCCN1C(=CC=CC2=[N+](CCCCCCC(=O)OCC)c3ccc4ccccc4c3C2(C)C)C(C)(C)c2c1ccc1ccccc21.[Br-] [Dye 3p, 3,3′-Di-(6-ethoxycarbonylhexyl)-1,1,1′,1′-tetramethyl-1H-dibenzo[e]indocarbocyanine bromide]
Fluorescence quantum yield [1]: 0.35

Compound: CC1(C)C(=CC=CC2=[N+](CCCCCCCCCCCC(=O)O)c3ccc4ccccc4c3C2(C)C)N(CCCCCCCCCCCC(=O)O)c2ccc3ccccc3c21.[Br-] [Dye 3g, 3,3′-Di-(11-carboxyundecyl)-1,1,1′,1′-tetramethyl-1H-dibenzo[e]indocarbocyanine bromide]
coloration of lens capsule ([2]; dye concentration 0.0025%): −
coloration of lens capsule ([2]; dye concentration 0.025%): −
coloration of lens capsule ([2]; dye concentration 0.25%): ++
coloration of lens capsule ([2]; dye concentration 0.5%): ++
Fluorescence quantum yield [1]: 0.35

Compound: COC(=O)CCCCCCCCCN1C(=CC=CC2=[N+](CCCCCCCCCC(=O)OC)c3ccc4ccccc4c3C2(C)C)C(C)(C)c2c1ccc1ccccc21.[Br-] [Dye 3j, 3,3′-Di-(9-methoxycarbonylnonyl)-1,1,1′,1′-tetramethyl-1H-dibenzo[e]indocarbocyanine bromide]
coloration of lens capsule ([2]; dye concentration 0.0025%): −
coloration of lens capsule ([2]; dye concentration 0.025%): −
coloration of lens capsule ([2]; dye concentration 0.25%): +
coloration of lens capsule ([2]; dye concentration 0.5%): ++
Fluorescence quantum yield [1]: 0.47

Compound: COC(=O)CCCCN1C(=CC=CC2=[N+](CCCCC(=O)OC)c3ccc4ccccc4c3C2(C)C)C(C)(C)c2c1ccc1ccccc21.[Br-] [Dye 3i, 3,3′-Di-(4-methoxycarbonylbutyl)-1,1,1′,1′-tetramethyl-1H-dibenzo[e]indocarbocyanine bromide]
coloration of lens capsule ([2]; dye concentration 0.0025%): −
coloration of lens capsule ([2]; dye concentration 0.025%): +
coloration of lens capsule ([2]; dye concentration 0.25%): +
coloration of lens capsule ([2]; dye concentration 0.5%): ++
Fluorescence quantum yield [1]: 0.40

Compound: COC(=O)CCN1C(=CC=CC2=[N+](CCC(=O)OC)c3ccc4ccccc4c3C2(C)C)C(C)(C)c2c1ccc1ccccc21.[Br-] [Dye 3h, 3,3′-Di-(2-methoxycarbonylethyl)-1,1,1′,1′-tetramethyl-1H-dibenzo[e]indocarbocyanine bromide]
coloration of lens capsule ([2]; dye concentration 0.0025%): −
coloration of lens capsule ([2]; dye concentration 0.025%): +
coloration of lens capsule ([2]; dye concentration 0.25%): ++
coloration of lens capsule ([2]; dye concentration 0.5%): +++
Fluorescence quantum yield [1]: 0.24
